Target: T1, human cathepsin K (Homo sapiens, UniProt P43235)
T1 construct: The proform of cathepsin K was converted to mature cathepsin K by brief exposure to pH 4; made in house; host or cells: baculovirus; Trichoplusia ni High Five cells (virus raised in Sf-9)
T1 sequence (P43235 115-329): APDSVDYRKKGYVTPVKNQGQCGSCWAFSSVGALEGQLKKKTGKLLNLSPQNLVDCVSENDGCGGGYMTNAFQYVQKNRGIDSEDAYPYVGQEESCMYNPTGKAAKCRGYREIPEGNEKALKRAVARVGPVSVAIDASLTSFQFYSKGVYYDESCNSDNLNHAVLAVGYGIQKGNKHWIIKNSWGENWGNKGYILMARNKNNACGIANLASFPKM
Assay: Cathepsin K inhibition assay, human recombinant enzyme, fluorogenic substrate Cbz-Phe-Arg-AMC
Format: biochemical
Conditions: Table 1, human cathepsin K; read-out: h Cat K IC50
Description: All assays for cathepsin K were carried out with human and rat recombinant enzyme. Assays for cathepsins S ? V were also carried out with human recombinant enzyme. Assays for human cathepsins B, H, and L were carried out with enzyme, purchased from Athens Research and Technology, Inc., prepared from human liver tissue. […] A stock substrate solution of Cbz-Phe-Arg-AMC was prepared at a concentration of 50 mM in dimethyl sulfoxide. This substrate was diluted into the assay for a final substrate concentration of 10 μM in the rat cathepsin K, human cathepsin K, and human cathepsin B assays; a final substrate concentration of 5 μM in the human cathepsin L assay; and a final substrate concentration of 2 μM in the human cathepsin V assay.
All assays contained 10% dimethyl sulfoxide. […] All assays were conducted at 30° C. Product fluorescence (excitation at 360 nm; emission at 440 nm, (except cathepsin H which used excitation at 340 nm; emission at 420 nm)) was monitored with a PerSeptive Biosystems Cytofluor II fluorescence plate reader. Product progress curves were generated over 2.3 h monitoring the formation of 7-amino-4-methylcoumarin product (or β-naphthalamide for cathepsin H).
Human and rat Cathepsin K:
Two liters of Spodoptera frugiperda (Sf-9) cells (ATCC) were grown in Grace's Supplemented medium (Life Technologies) supplemented with 2 g/L glucose, 10% fetal bovine serum (HyClone) and 0.1% pluronic F-68 (Life Technologies). […] The cells continued to grow for 72 h post-infection, before the virus was harvested by centrifugation at 1400×g for 30 min.
One and one-half liters of Trichoplusia ni (T. ni) High Five (™) cells [JRH Biosciences, Woodland, Calif. […] The cells were grown for 24 h at 28° C., 50 RPM, and 50% dissolved oxygen. […] Media were separated from cells at a rate of 1 L/min using the Centritech 100 ™ continuous-flow centrifuge (DuPont) operating at 200×g.
Protein Purification: Media (human and rat) were filtered through a Whatman 3 filter, and then loaded onto a 25 mL. Poros HS II (26 mm×47 mm) cation exchange column equilibrated in 25 mM sodium acetate at pH 5.5 (equilibration buffer). The column was washed until the absorbance reached the baseline value, and then the protein was eluted with a linear gradient from 0-2 M sodium chloride in the equilibration buffer. Column fractions were analyzed by SDS-PAGE, N-terminal sequencing, and mass spectrometry. Fractions containing the proform of cathepsin K were pooled and frozen at −80° C. The proform was concentrated in an Amicon Centriprep 10 and fractionated with a Superdex 75 column (26 mm×600 mm, Pharmacia) equilibrated in 400 mM sodium chloride, 25 mM sodium acetate at pH 5.5.
Cathepsin K Activation: The proform of cathepsin K was converted to mature cathepsin K by brief exposure to pH 4 in the presence of 5 mM L-cysteine. Typically, 5 mM L-cysteine was added to 10 mL of approximately 1 mg/mL procathepsin K. One mL of this solution was diluted ten-fold into 450 mM sodium acetate at pH 4.0 containing 5 mM L-cysteine. This solution was reacted at 23° C. for 2 min before neutralization with 2 mL, 1.8 M sodium acetate at pH 6.0. The neutralized sample was added to the remaining 9 mL of procathepsin K. The mixture was incubated at 4° C. for 2-3 days. The activated cathepsin K was chromatographed on a Poros HS II column as described above.
Potential inhibitors were evaluated using the progress curve method. Assays were carried out in the presence of variable concentrations of test compound. Reactions were initiated by addition of buffered solutions of inhibitor and substrate to enzyme. Data analysis was conducted according to one of two procedures depending on the appearance of the progress curves in the presence of inhibitors. […] Ki values were calculated from IC50 values using equation 2 assuming a competitive model.

IC50 | Structure (SMILES)
0.001 to 0.01 µM | CCCC[C@H](NC(=O)O[C@@H]1CN(C(=O)Nc2ccccc2)CC1(C)C)C(=O)C(=O)N[C@H](C)c1ccccc1 [Example 63, (3S)-1-(Anilinocarbonyl)-4,4-dimethylpyrrolidinyl (1S)-1-(oxo{[(1R)-1-phenylethyl]amino}acetyl)pentylcarbamate]
0.01 to 0.1 µM | CCCC[C@H](NC(=O)O[C@@H]1CN(C(=O)c2ccccc2)CC1(C)C)C(=O)C(=O)N[C@H](C)c1ccccc1 [Example 9]
0.01 to 0.1 µM | CCCC[C@H](NC(=O)O[C@@H]1CN(C(=O)Cc2ccc(F)cc2)CC1(C)C)C(=O)C(=O)N[C@H](C)c1ccccc1 [Example 39, (3S)-1-[(4-Fluorophenyl)acetyl]-4,4-dimethylpyrrolidinyl (1S)-1-(oxo{[(1R)-1-phenylethyl]amino}acetyl)pentylcarbamate]
0.001 to 0.01 µM | CCCC[C@H](NC(=O)O[C@@H]1CN(C(=O)c2cc3ccccc3s2)CC1(C)C)C(=O)C(=O)N[C@H](C)c1ccccc1 [Example 17, (3S)-1-(1-Benzothien-2-ylcarbonyl)-4,4-dimethylpyrrolidinyl (1S)-1-(oxo{[(1R)-1-phenylethyl]amino}acetyl)pentylcarbamate]
0.01 to 0.1 µM | CCCC[C@H](NC(=O)O[C@@H]1CN(C(=O)OCc2cccc(-c3ccccc3)c2C)CC1(C)C)C(=O)C(=O)N[C@H](C)c1ccccc1 [Example 54, (2-Methyl[1,1′-biphenyl]-3-yl)methyl (4S)-3,3-dimethyl-4-[({[(1S)-1-(oxo{[(1R)-1-phenylethyl]amino}acetyl)pentyl]amino}carbonyl)oxy]-1-pyrrolidinecarboxylate]
0.01 to 0.1 µM | CCCC[C@H](NC(=O)O[C@@H]1CN(C(=O)c2cc3ccccc3[nH]2)CC1(C)C)C(=O)C(=O)N[C@H](C)c1ccccc1 [Example 32, (3S)-1-(1H-Indol-2-ylcarbonyl)-4,4-dimethylpyrrolidinyl (1S)-1-(oxo {[(1R)-1-phenylethyl]amino}acetyl)pentylcarbamate]
0.01 to 0.1 µM | CCCC[C@H](NC(=O)O[C@@H]1CN(C(=O)OCc2ccsc2)CC1(C)C)C(=O)C(=O)N[C@H](C)c1ccccc1 [Example 42, 3-Thienylmethyl (4S)-3,3-dimethyl-4-[({[(1S)-1-(oxo {[(1R)-1-phenylethyl]amino}acetyl)pentyl]amino}carbonyl)oxy]-1-pyrrolidinecarboxylate]
0.001 to 0.01 µM | CCCC[C@H](NC(=O)O[C@@H]1CN(C(=O)OCc2c(-c3c(Cl)cccc3Cl)noc2C)CC1(C)C)C(=O)C(=O)N[C@H](C)c1ccccc1 [Example 53, [3-(2,6-Dichlorophenyl)-5-methyl-4-isoxazolyl]methyl (4S)-3,3-dimethyl-4-[({[(1S)-1-(oxo{[(1R)-1-phenylethyl]amino}acetyl)pentyl]amino}carbonyl)oxy]-1-pyrrolidinecarboxylate]
0.01 to 0.1 µM | CCCC[C@H](NC(=O)O[C@@H]1CN(C(=O)NC2CCCCC2)CC1(C)C)C(=O)C(=O)N[C@H](C)c1ccccc1 [Example 68, (3S)-1-[(Cyclohexylamino)carbonyl]-4,4-dimethylpyrrolidinyl (1S)-1-(oxo{[(1R)-1-phenylethyl]amino}acetyl)pentylcarbamate]

More lines, now with the values behind:

Structure (SMILES) | IC50
CCCC[C@H](NC(=O)O[C@@H]1CN(C(=O)Oc2ccc3ccccc3c2)CC1(C)C)C(=O)C(=O)N[C@H](C)c1ccccc1 [Example 60, 2-Naphthyl (4S)-3,3-dimethyl-4-[({[(1S)-1-(oxo {[(1R)-1-phenylethyl]amino}acetyl)pentyl]amino}carbonyl)oxy]-1-pyrrolidinecarboxylate] | 0.01 to 0.1 µM
CCCC[C@H](NC(=O)O[C@@H]1CN(C(=O)c2c(-c3ccccc3)noc2C)CC1(C)C)C(=O)C(=O)N[C@H](C)c1ccccc1 [Example 27, (3S)-4,4-Dimethyl-1-[(5-methyl-3-phenyl-4-isoxazolyl)carbonyl]pyrrolidinyl (1S)-1-(oxo{[(1R)-1-phenylethyl]amino}acetyl)pentylcarbamate] | 0.01 to 0.1 µM
CCCC[C@H](NC(=O)OC1C(=O)N(C(=O)OCc2ccccc2)CC1(C)C)C(=O)C(=O)N[C@H](C)c1ccccc1 (stereo partly drawn) [Example 5, Benzyl 4,4-dimethyl-2-oxo-3-[({[(1S)-1-(oxo{[(1R)-1-phenylethyl]amino}acetyl)pentyl]amino}carbonyl)oxy]-1-pyrrolidinecarboxylate] | 0.01 to 0.1 µM
CCCC[C@H](NC(=O)O[C@@H]1CN(C(=O)OCc2ccccc2)CC1(C)C)C(=O)C(=O)N[C@H](C)c1ccccc1 [Example 44, Benzyl (4S)-3,3-dimethyl-4-[({[(1S)-1-(oxo{[(1R)-1-phenylethyl]amino}acetyl)pentyl]amino}carbonyl)oxy]-1-pyrrolidinecarboxylate] | 0.01 to 0.1 µM
CCCC[C@H](NC(=O)O[C@@H]1CN(C(=O)OCC2CCCO2)CC1(C)C)C(=O)C(=O)N[C@H](C)c1ccccc1 (stereo partly drawn) [Example 41, Tetrahydro-2-furanylmethyl (4S)-3,3-dimethyl-4-[({[(1S)-1-(oxo{[(1R)-1-phenylethyl]amino}acetyl)pentyl]amino}carbonyl)oxy]-1-pyrrolidinecarboxylate] | 0.001 to 0.01 µM
CCCC[C@H](NC(=O)O[C@@H]1CN(C(=O)OCc2c(C)noc2-c2cc(C)on2)CC1(C)C)C(=O)C(=O)N[C@H](C)c1ccccc1 [Example 50, [3-Methyl-5-(5-methyl-isoxazol-3-yl)-4-isoxazolyl]methyl (4S)-3,3-dimethyl-4-[({[(1S)-1-(oxo{[(1R)-1-phenylethyl]amino}acetyl)pentyl]amino}carbonyl)oxy]-1-pyrrolidinecarboxylate] | 0.01 to 0.1 µM
CCCC[C@H](NC(=O)O[C@@H]1CN(C(=O)c2cnc3ccccc3c2)CC1(C)C)C(=O)C(=O)N[C@H](C)c1ccccc1 [Example 29, (3S)-4,4-Dimethyl-(3-quinolinylcarbonyl)pyrrolidinyl 1-(oxo{[(1R)-1-phenylethyl]amino}acetyl)pentylcarbamate] | 0.01 to 0.1 µM
CCCC[C@H](NC(=O)O[C@@H]1CN(C(=O)c2cc(C)on2)CC1(C)C)C(=O)C(=O)N[C@H](C)c1ccccc1 [Example 19, (3S)-4,4-Dimethyl-1-[(5-methyl-3-isoxazolyl)carbonyl]pyrrolidinyl (1S)-1-(oxo {[(1R)-1-phenylethyl]amino}acetyl)pentylcarbamate] | 0.01 to 0.1 µM
CCCC[C@H](NC(=O)O[C@@H]1CN(C(=O)c2cccnc2)CC1(C)C)C(=O)C(=O)N[C@H](C)c1ccccc1 [Example 66, (3S)-4,4-Dimethyl-1-(3-pyridinylcarbonyl)pyrrolidinyl (1S)-1-(oxo{[(1R)-1-phenylethyl]amino}acetyl)pentylcarbamate] | 0.01 to 0.1 µM
CCCC[C@H](NC(=O)O[C@@H]1CN(C(=O)Nc2ccc(C#N)cc2)CC1(C)C)C(=O)C(=O)N[C@H](C)c1ccccc1 [Example 69, (3S)-1-[(4-Cyanoanilino)carbonyl]-4,4-dimethylpyrrolidinyl (1S)-1-(oxo{[(1R)-1-phenylethyl]amino}acetyl)pentylcarbamate] | 0.01 to 0.1 µM
CCCCC(NC(=O)O[C@@H]1COCC1(C)C)C(=O)C(=O)N[C@H](C)c1ccccc1 (stereo partly drawn) [Example 83, (3S)-4,4-Dimethyltetrahydro-3-furanyl 1-(oxo{[(1R)-1-phenylethyl]amino}acetyl)pentylcarbamate] | 0.01 to 0.1 µM
CCCC[C@H](NC(=O)O[C@@H]1CN(C(=O)NCc2ccccc2)CC1(C)C)C(=O)C(=O)N[C@H](C)c1ccccc1 [Example 64] | 0.001 to 0.01 µM

— patent publication US7402606B2, “Derivatives of 1-(oxoaminoacetyl) pentylcarbamate as cathepsin K inhibitors for the treatment of bone loss” (SmithKline Beecham Corporation, priority 2002, dated 2008)
